For series [1], the target named is T1, Solute carrier organic anion transporter family member 1A2 (OATP1A2) (Homo sapiens, UniProt P46721).
T1 sequence (P46721 whole entry): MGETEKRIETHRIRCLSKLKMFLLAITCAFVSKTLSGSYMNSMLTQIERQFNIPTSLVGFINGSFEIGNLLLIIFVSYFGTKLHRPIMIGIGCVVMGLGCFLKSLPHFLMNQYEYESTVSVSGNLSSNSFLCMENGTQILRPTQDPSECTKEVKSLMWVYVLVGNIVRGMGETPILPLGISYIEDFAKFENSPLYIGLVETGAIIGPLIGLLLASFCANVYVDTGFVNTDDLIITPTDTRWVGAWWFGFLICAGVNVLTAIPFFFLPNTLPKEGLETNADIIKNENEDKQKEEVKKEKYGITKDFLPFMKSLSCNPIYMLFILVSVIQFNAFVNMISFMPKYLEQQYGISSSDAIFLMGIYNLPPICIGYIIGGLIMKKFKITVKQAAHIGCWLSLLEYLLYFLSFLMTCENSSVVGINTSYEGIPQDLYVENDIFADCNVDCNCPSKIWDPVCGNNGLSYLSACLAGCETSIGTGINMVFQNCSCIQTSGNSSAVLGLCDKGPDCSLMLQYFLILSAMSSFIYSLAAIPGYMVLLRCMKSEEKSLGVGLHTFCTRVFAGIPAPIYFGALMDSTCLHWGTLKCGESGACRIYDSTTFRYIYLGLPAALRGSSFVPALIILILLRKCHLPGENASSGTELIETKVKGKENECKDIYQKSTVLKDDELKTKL
Description: (§1) TP_TRANSPORTER: uptake in Xenopus laevis oocytes. It is filed as functional, cell-based, Oocyte. The settings on record: Xenopus laevis oocytes expressing the transporter.

The target in series [2] is T2, Solute carrier organic anion transporter family member 1A4 (Rattus norvegicus, UniProt O35913).
T2 sequence (O35913 whole entry): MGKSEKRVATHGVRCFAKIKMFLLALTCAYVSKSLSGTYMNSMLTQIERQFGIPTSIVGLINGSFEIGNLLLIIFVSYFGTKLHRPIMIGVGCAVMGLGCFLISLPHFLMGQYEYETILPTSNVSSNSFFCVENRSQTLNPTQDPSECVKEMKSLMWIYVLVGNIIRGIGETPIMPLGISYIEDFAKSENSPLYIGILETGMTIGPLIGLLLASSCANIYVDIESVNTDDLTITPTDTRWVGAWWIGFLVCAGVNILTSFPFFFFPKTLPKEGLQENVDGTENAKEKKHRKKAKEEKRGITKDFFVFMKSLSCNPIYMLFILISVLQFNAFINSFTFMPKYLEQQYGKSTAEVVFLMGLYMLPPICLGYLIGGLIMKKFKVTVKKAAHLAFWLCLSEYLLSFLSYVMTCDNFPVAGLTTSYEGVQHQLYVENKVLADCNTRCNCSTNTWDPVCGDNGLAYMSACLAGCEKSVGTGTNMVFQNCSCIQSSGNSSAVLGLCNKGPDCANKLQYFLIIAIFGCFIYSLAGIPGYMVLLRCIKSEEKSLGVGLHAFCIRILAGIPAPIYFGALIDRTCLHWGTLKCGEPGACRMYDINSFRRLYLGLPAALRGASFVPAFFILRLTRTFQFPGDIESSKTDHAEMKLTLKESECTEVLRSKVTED
The description is as §1. Type of series: functional, cell-based. The settings on record: oocyte.

Series [3] concerns the target T3, Solute carrier organic anion transporter family member 1A1 (Rattus norvegicus, UniProt P46720).
T3 sequence (P46720 whole entry): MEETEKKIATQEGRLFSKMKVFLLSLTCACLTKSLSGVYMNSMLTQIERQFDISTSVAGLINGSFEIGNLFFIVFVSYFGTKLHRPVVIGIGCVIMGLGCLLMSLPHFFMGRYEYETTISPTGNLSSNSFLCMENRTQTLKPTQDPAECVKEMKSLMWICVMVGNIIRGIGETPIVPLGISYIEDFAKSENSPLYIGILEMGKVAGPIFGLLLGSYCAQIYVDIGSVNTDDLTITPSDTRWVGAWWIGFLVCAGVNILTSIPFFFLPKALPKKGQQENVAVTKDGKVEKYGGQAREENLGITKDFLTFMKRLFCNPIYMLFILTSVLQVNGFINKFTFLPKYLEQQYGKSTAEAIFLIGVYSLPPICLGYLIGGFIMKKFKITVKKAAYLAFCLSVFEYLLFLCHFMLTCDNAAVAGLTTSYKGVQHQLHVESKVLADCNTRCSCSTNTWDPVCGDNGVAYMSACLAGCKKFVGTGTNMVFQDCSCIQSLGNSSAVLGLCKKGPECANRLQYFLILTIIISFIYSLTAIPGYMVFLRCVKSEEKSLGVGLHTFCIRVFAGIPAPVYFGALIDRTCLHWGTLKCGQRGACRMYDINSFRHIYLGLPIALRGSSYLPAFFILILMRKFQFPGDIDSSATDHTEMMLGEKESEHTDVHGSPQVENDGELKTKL
The series is described as §1. Type of series: functional, cell-based. The settings on record: oocyte.

For series [4], the target named is T4, Solute carrier organic anion transporter family member 1A2 (Homo sapiens, UniProt P46721).
T4 sequence (P46721 whole entry): T1 sequence (P46721 whole entry)
The description is as §1. It is filed as functional, cell-based, Oocyte. The settings on record: oocyte.

The Km is the substrate concentration at which the rate is half of its maximum. Turning to `C=C[C@H]1C[N+]2(C)CC[C@H]1C[C@@H]2[C@@H](O)c1ccnc2ccc(OC)cc12`, in series [1], the Michaelis-Menten constant (Km) was 25.6 µM. Besides, the Activity entry in series [2] and in series [3] was “is not a substrate [-]” in each case.
`C=CC[N+]1([C@H]2C[C@H]3[C@@H]4CC[C@H]5C[C@H](O)[C@@H](N6CCOCC6)C[C@]5(C)[C@H]4CC[C@]3(C)[C@H]2OC(C)=O)CCCC1` [ROCURONIUM]: the Activity result in series [4], in series [2] and in series [3] was “substrate [+]” in each case.
Take `CCC1C[N+]2(CCCC3(C)N=N3)C3CC45c6ccccc6N(C)C4C2CC1C3C5O` (configuration not stated): the Activity result in series [4], in series [2] and in series [3] was “substrate [+]” throughout.
On to `C=C[C@H]1C[N+]2(C)CC[C@H]1C[C@H]2[C@H](O)c1ccnc2ccc(OC)cc12`, for which the Km in series [1] turned out to be 5.1 µM. Further, the Activity entry was “is not a substrate [-]” in series [2] and “substrate [+]” in series [3].

Values taken from ChEMBL document CHEMBL2074320, “Polyspecific organic anion transporting polypeptides mediate hepatic uptake of amphipathic type II organic cations” (J Pharmacol Exp Ther, 1999).
